Results on two substances are retold here after paper PMC10587126, “Molecular hybridization strategy for tuning bioactive peptide function” (Communications Biology, 2023).

Read-outs that look alike come from different tables or passages of the source. No end group written: not given here.

As usually defined, the share remaining is the share of the starting amount still present when the sample was taken.

Data set [1] is described as follows: Resistance to proteolytic degradation in fetal bovine serum. The following applies: 25% fetal bovine serum in water, 37 °C. Type of data set: in vitro ADME. The procedure, abridged:
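Peptide was incubated at 37 °C in fetal bovine serum diluted to 25% in water, with aliquots taken at 0, 0.5, 1, 2, 4 and 6 h. The percentage of peptide remaining was measured by liquid chromatography peak-area integration. Three independent replicates were run.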

A short description of data set [2]: Skin tissue histopathological analysis (H&E). The conditions noted are these: H&E staining, tissue collected 24 h after infection and treatment, three mice per condition. Type of data set: in vivo, mouse. On the procedure:
The fur on the back of the mice was removed and the mice were infected and treated as described in the Skin abscess infection mouse model section. After 24 h, mice were euthanized for tissue collection. Samples were pre-fixed in individual cassettes, then transferred to a container filled with 70% ethanol (EtOH) for slicing and staining. Next, the samples were placed on glass slides for microscopy analysis. We collected the tissue from three mice per condition analyzed.

Data set [3] has as its system human erythrocytes. In words: Hemolytic activity. The format is cell-based. The conditions noted are these: 0.1–100 μmol L^−1 in PBS, room temperature, 1 h, absorbance 405 nm.
Data set [4] in a line: Mouse body weight in the skin abscess infection model. The format is in vivo.
In data set [5] the test system is human erythrocytes. The conditions noted are these: at 100 µmol L^−1; cited from earlier work. The text has this:
These observations are consistent with our results for PV, which incorporated protonectin’s hydrophobic face (Fig. 2) displaying increased antimicrobial activity than VP (Fig. 3). Additi ...

Setting [6] is: LC peak area, time 0 = 100, 0.5 h, replicate 3.
Where [7] appears, read: LC peak area, time 0 = 100, 1 h, replicate 3.
[8] abbreviates: LC peak area, time 0 = 100, 2 h, replicate 3.
Where [9] appears, read: LC peak area, time 0 = 100, 4 h, replicate 1.
[10] abbreviates: LC peak area, time 0 = 100, 4 h, replicate 2.
[11] abbreviates: LC peak area, time 0 = 100, 6 h, replicate 1.
The mark [12] stands for this setting: LC peak area, time 0 = 100, 6 h, replicate 2.
Setting [13] is: LC peak area, time 0 = 100, 6 h, replicate 3.

As for FLGAIGNVLKSIL-NH2 [TV], in data set [1] (LC peak area vs time 0, 30 min, three replicates), the “Peptide remaining after 30 min” value is recorded as “totally degraded”. The Peptide remaining in data set [1] (LC peak area, time 0 = 100, 0.5 h, replicate 1) was 0; in data set [1] (LC peak area, time 0 = 100, 0.5 h, replicate 2), 0; in data set [1] (setting [6]) it was 0; in data set [1] (LC peak area, time 0 = 100, 1 h, replicate 1) it was 0; in data set [1] (LC peak area, time 0 = 100, 1 h, replicate 2) it was 0; in data set [1] (setting [7]), 0. Further, the Peptide remaining in data set [1] (LC peak area, time 0 = 100, 2 h, replicate 1) worked out at 0; in data set [1] (LC peak area, time 0 = 100, 2 h, replicate 2), 0; in data set [1] (setting [8]) it was 0; in data set [1] (setting [9]), 0; in data set [1] (setting [10]), 0; in data set [1] (setting [11]), 0. Moreover, the Peptide remaining in data set [1] (setting [12]) and in data set [1] (setting [13]) was 0 each time. Besides, in data set [1] (fetal bovine serum, 25% in water, LC peak area, time 0 = 100, 4 h, replicate 3, read-out: Peptide remaining), the share remaining at 4 h amounted to 0%. Also, the “Histopathological effect on skin tissue (in words)” value in data set [2] is reported as “Neither TV nor VmCT1 changed the tissue’s morphology”. For the same substance, the “Hemolytic activity (concentration of peptide needed to kill 10% of red blood cells)” value in data set [3] is 0.2 µmol/L. In addition, the “Mouse body weight, normalized to the weight at the beginning of the experiment” value in data set [4] (day 0 = 100, Day 1, replicate 1) is 90; in data set [4] (day 0 = 100, Day 1, replicate 2), 90; in data set [4] (day 0 = 100, Day 1, replicate 3), 100; in data set [4] (day 0 = 100, Day 2, replicate 1), 90; in data set [4] (day 0 = 100, Day 2, replicate 2), 95; in data set [4] (day 0 = 100, Day 2, replicate 3), 100. For the same substance, the “Mouse body weight, normalized to the weight at the beginning of the experiment” value is given as 90 in data set [4] (day 0 = 100, Day 3, replicate 1); 95 in data set [4] (day 0 = 100, Day 3, replicate 2); 105 in data set [4] (day 0 = 100, Day 3, replicate 3); 85 in data set [4] (day 0 = 100, Day 4, replicate 1); 95 in data set [4] (day 0 = 100, Day 4, replicate 2); 100 in data set [4] (day 0 = 100, Day 4, replicate 3).

With “SLLSLIRKLIT-NH2 [Decoralin, reference compound]”, the Peptide remaining in data set [1] (setting [6]) came out at 0.0; in data set [1] (setting [7]), 0.0; in data set [1] (setting [8]) it was 0.0; in data set [1] (setting [9]), 0.0; in data set [1] (setting [10]), 0.0; in data set [1] (LC peak area, time 0 = 100, 4 h, replicate 3), 0.0. The Peptide remaining in data set [1] (setting [11]), in data set [1] (setting [12]) and in data set [1] (setting [13]) was 0.0 each time. Besides, the share remaining at 0.5 h in data set [1] (fetal bovine serum, 25% in water, LC peak area, time 0 = 100, 0.5 h, replicate 1, read-out: Peptide remaining) came to 71%; in data set [1] (fetal bovine serum, 25% in water, LC peak area, time 0 = 100, 0.5 h, replicate 2, read-out: Peptide remaining) it was 65%. For the same substance, the amount remaining at 1 h in data set [1] (fetal bovine serum, 25% in water, LC peak area, time 0 = 100, 1 h, replicate 1, read-out: Peptide remaining) was 26%; in data set [1] (fetal bovine serum, 25% in water, LC peak area, time 0 = 100, 1 h, replicate 2, read-out: Peptide remaining) it was 23%. Further, the fraction remaining at 2 h was found to be 29% in data set [1] (fetal bovine serum, 25% in water, LC peak area, time 0 = 100, 2 h, replicate 1, read-out: Peptide remaining) and 23% in data set [1] (fetal bovine serum, 25% in water, LC peak area, time 0 = 100, 2 h, replicate 2, read-out: Peptide remaining). Besides, the “Hemolytic activity (concentration of peptide needed to kill 10% of red blood cells)” value in data set [3] worked out at 1.6 µmol/L. Moreover, the “Hemolytic activity (in words)” value in data set [5] is listed as “low hemolytic activity”.
